Measurements: ChEMBL document CHEMBL2010722, “Structure-activity relationship study of beta-carboline derivatives as haspin kinase inhibitors” (Bioorg Med Chem Lett, 2012)
Activity calls are given as the source filed them. No cut-off for these calls is given here.

Columns and labels:
[1] = molecular target: T1, Dual specificity tyrosine-phosphorylation-regulated kinase 2 (Homo sapiens, UniProt Q92630)
T1 sequence (Q92630 whole entry): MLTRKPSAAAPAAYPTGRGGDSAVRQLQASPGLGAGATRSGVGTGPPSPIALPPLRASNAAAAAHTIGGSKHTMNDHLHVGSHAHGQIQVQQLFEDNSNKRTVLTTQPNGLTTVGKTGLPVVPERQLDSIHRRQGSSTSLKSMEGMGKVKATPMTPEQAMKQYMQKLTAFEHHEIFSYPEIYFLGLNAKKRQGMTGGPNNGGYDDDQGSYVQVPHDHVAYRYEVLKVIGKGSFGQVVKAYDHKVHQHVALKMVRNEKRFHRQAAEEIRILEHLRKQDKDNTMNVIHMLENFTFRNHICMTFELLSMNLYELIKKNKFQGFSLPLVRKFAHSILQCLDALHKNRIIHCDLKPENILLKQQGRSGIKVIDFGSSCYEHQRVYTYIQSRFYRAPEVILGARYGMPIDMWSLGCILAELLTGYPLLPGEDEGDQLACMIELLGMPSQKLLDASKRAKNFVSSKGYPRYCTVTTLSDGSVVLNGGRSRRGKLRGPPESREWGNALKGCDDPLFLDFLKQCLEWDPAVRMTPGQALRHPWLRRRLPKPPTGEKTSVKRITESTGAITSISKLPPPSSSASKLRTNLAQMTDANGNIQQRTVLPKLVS

[2] = molecular target: T2, Serine/threonine-protein kinase haspin (Homo sapiens, UniProt Q8TF76)
T2 sequence (Q8TF76 whole entry): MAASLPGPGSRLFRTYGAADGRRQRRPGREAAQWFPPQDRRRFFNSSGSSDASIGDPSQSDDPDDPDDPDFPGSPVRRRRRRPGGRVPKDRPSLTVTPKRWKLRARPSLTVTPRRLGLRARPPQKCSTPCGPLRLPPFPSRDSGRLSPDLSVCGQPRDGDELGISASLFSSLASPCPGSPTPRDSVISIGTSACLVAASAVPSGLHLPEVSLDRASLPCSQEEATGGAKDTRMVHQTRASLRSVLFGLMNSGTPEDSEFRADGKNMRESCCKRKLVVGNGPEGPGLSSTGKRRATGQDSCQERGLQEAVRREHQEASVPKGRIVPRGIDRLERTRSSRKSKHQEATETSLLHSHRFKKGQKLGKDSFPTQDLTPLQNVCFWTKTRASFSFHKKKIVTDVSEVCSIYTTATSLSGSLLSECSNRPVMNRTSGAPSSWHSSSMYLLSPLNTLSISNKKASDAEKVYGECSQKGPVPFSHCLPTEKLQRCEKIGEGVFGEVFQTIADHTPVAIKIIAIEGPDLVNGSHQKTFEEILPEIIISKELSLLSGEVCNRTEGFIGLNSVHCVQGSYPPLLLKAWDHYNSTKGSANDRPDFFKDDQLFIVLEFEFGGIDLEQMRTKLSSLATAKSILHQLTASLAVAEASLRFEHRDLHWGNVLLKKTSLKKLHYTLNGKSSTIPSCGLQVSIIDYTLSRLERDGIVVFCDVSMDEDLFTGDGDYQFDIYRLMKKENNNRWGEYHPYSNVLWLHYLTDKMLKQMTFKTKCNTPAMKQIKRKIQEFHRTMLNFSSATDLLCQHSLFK

[3] = molecular target: T1, Dual specificity tyrosine-phosphorylation-regulated kinase 2; experiment: Inhibition of DYRK2
[4] = molecular target: Serine/threonine-protein kinase haspin (Homo sapiens) (UniProt Q8TF76); experiment: Inhibition of human recombinant N-terminal MBP-tagged haspin kinase expressed in Escherichia coli DE3 at 10 uM after 10 mins by TR-FRET assay

Compound | IC50 [1] [nM] | IC50 [2] [nM] | IC50 [3] [nM] | inhibition [4]
COc1ccc2c3ccnc(C)c3n(CCCCN(C)C)c2c1 | > 10000 | 470 | – | –
CCc1nccc2c3ccc(OC)cc3n(CCCCN)c12 | > 10000 | 190 | – | –
CNCCCCn1c2cc(OC)ccc2c2ccnc(C)c21 | > 10000 | 340 | – | –
COc1ccc2c(c1)c1ccnc(C)c1n2CCCCN | 4900 | 2400 | – | –
COc1ccc2c3ccnc(C)c3n(CCCCN)c2c1 | > 10000 | 170 | – | –
COc1cccc2c1c1ccnc(C)c1n2CCCCN | 7000 | 2700 | – | –
Cc1nccc2c3ccc(NS(C)(=O)=O)cc3n(CCCCN)c12 | > 10000 | 690 | – | –
COc1ccc2c3ccnc(C(C)C)c3n(CCCCN)c2c1 | > 10000 | 460 | – | –
COc1ccc2c3ccnc(C)c3n(CCCCN)c2c1Cl | 8000 | 830 | – | –
Cc1[nH]ccc2c1[nH]c1cc(=O)ccc12 [HARMOL] | – | 770 | 1500 | –
COc1cccc2c3ccnc(C)c3n(CCCCN)c12 | > 10000 | 220 | – | –
NCCCCn1c2cc(O)ccc2c2ccnc(C(F)(F)F)c21 | 8500 | 220 | – | –
Cc1nccc2c1[nH]c1cc(OCCCCN)ccc12 | – | – | – | inactive
Cc1nccc2c3ccc(OC(C)(C)C)cc3n(CCCCN)c12 | > 10000 | 4600 | – | –
Cc1nccc2c1[nH]c1cc(OCCCN)ccc12 | – | – | – | inactive
Cc1nccc2c3ccc(O)cc3n(CCCCN)c12 | > 10000 | 160 | – | –
Cc1nccc2c3cc4c(cc3n(CCCCN)c12)OCO4 | 4800 | 500 | – | –
Cc1nccc2c3ccc(F)cc3n(CCCCN)c12 | > 10000 | 580 | – | –
COc1ccc2c3ccncc3n(CCCCN)c2c1 | > 10000 | 300 | – | –
COc1ccc2c(c1)[nH]c1c(C)nccc12 [HARMINE] | – | – | 690 | –
